The results in this text go back to ChEMBL document CHEMBL3217732, “Inhibition of Pseudomonas aeruginosa biofilms with a glycopeptide dendrimer containing D-amino acids” (Medchemcomm, 2011).

Calls of active or inactive are those of the source. The rule behind the calls is not given here. Where a SMILES comes first, the peptide text is derived from it. Bridges are numbered along the chain shown (N, C = ends). Roman numbers before positions name the chains, in order. Side-chain parts run from the residue outwards. The star is where a group is joined. Acetyl(C-α-L-Fucp) = C[C@@H]1O[C@@H](CC(=O)*)[C@@H](O)[C@H](O)[C@@H]1O

A short description of data set [1]: Binding affinity to Pseudomonas aeruginosa lectin LecB after 1 hr by enzyme-linked lectin assay.
The subject of data set [2] is Pseudomonas aeruginosa. Put plainly: Ratio of L-fucose IC50 to compound IC50 for Pseudomonas aeruginosa lectin LecB after 1 hr by enzyme-linked lectin assay.
Data set [3] is described as follows: Stability of the compound in 100 mM of tris buffer at pH 7.5 after 30 mins in presence of trypsin. The conditions noted are these: isolated protein, pH 7.5, 0.5 h. The data set is classed as ADME.
Data set [4] can be described thus: Half life in human serum. The data set is classed as ADME, cell-free.
Data set [5] is described as follows: Stability of the compound in 100 mM of tris buffer at pH 7.5 after 30 mins in presence of chymotrypsin. As to conditions: isolated protein, pH 7.5, 0.5 h. The data set is classed as ADME.
The subject of data set [6] is Pseudomonas aeruginosa. As to the kind of experiment: Inhibition of wild type Pseudomonas aeruginosa PAO1 biofilm formation at 0.05 mM after 24 hrs using acridine orange staining by steel coupon assay. The data set is classed as functional, organism-based.
The test system of data set [7] is Pseudomonas aeruginosa. As to the kind of experiment: Ratio of FD2 IC50 to compound IC50 for Pseudomonas aeruginosa lectin LecB after 1 hr by enzyme-linked lectin assay.
Data set [8] concerns Pseudomonas aeruginosa. As to the kind of experiment: Inhibition of Pseudomonas aeruginosa clinical isolate A035 biofilm formation at 0.05 mM after 24 hrs using acridine orange staining by steel coupon assay. Format: functional, organism-based.
A short description of data set [9]: Stability of the compound in 100 mM of tris buffer at pH 7.5 after 48 hrs in presence of trypsin. Format: ADME. The conditions noted are these: isolated protein, pH 7.5, 48 h.
Data set [10] has as its system Pseudomonas aeruginosa. Put plainly: Inhibition of Pseudomonas aeruginosa clinical isolate A021 biofilm formation at 0.05 mM after 24 hrs using acridine orange staining by steel coupon assay. The data set is classed as functional, organism-based.
In data set [11] the test system is Pseudomonas aeruginosa. As to the kind of experiment: Inhibition of Pseudomonas aeruginosa clinical isolate A014 biofilm formation at 0.05 mM after 24 hrs using acridine orange staining by steel coupon assay. Format: functional, organism-based.
The test system of the next data set is Serum. As to the kind of experiment: Metabolic stability in human serum. Format: ADME, cell-free.
Data set [12] is described as follows: Stability of the compound in 100 mM of tris buffer at pH 7.5 after 48 hrs in presence of chymotrypsin. Format: ADME. As to conditions: isolated protein, pH 7.5, 48 h.

Usually IC50 stands for the midpoint of a concentration-inhibition curve. Low values mean greater potency, high ones weaker potency. The molecule `CC(C)C[C@H](NC(=O)[C@H](Cc1cnc[nH]1)NC(=O)[C@H](CCCCNC(=O)[C@H](CC(C)C)NC(=O)[C@H](CCCCN)NC(=O)[C@H](Cc1ccccc1)NC(=O)[C@H](CCCCNC(=O)[C@H](CC(C)C)NC(=O)[C@@H]1CCCN1C(=O)[C@H](CCCCN)NC(=O)C[C@@H]1O[C@@H](C)[C@@H](O)[C@@H](O)[C@@H]1O)NC(=O)[C@H](CC(C)C)NC(=O)[C@@H]1CCCN1C(=O)[C@H](CCCCN)NC(=O)C[C@@H]1O[C@@H](C)[C@@H](O)[C@@H](O)[C@@H]1O)NC(=O)[C@H](CC(C)C)NC(=O)[C@H](CCCCN)NC(=O)[C@H](Cc1ccccc1)NC(=O)[C@H](CCCCNC(=O)[C@H](CC(C)C)NC(=O)[C@@H]1CCCN1C(=O)[C@H](CCCCN)NC(=O)C[C@@H]1O[C@@H](C)[C@@H](O)[C@@H](O)[C@@H]1O)NC(=O)[C@H](CC(C)C)NC(=O)[C@@H]1CCCN1C(=O)[C@H](CCCCN)NC(=O)C[C@@H]1O[C@@H](C)[C@@H](O)[C@@H](O)[C@@H]1O)C(N)=O` showed an IC50 in [1] of 150 nM. Also, in the data set with Pseudomonas aeruginosa [2], the Ratio IC50 was determined as 73.3.

One may read the half-life as the time in which the quantity being followed falls by half. A lower half-life goes with fast loss. For `CC[C@H](C)[C@H](NC(=O)[C@H](Cc1cnc[nH]1)NC(=O)[C@H](CCCCNC(=O)[C@@H](NC(=O)[C@H](CCCCN)NC(=O)[C@H](Cc1ccccc1)NC(=O)[C@H](CCCCNC(=O)[C@H](CC(C)C)NC(=O)[C@@H]1CCCN1C(=O)[C@H](CCCCN)NC(=O)C[C@@H]1O[C@@H](C)[C@@H](O)[C@@H](O)[C@@H]1O)NC(=O)[C@H](CC(C)C)NC(=O)[C@@H]1CCCN1C(=O)[C@H](CCCCN)NC(=O)C[C@@H]1O[C@@H](C)[C@@H](O)[C@@H](O)[C@@H]1O)[C@@H](C)CC)NC(=O)[C@@H](NC(=O)[C@H](CCCCN)NC(=O)[C@H](Cc1ccccc1)NC(=O)[C@H](CCCCNC(=O)[C@H](CC(C)C)NC(=O)[C@@H]1CCCN1C(=O)[C@H](CCCCN)NC(=O)C[C@@H]1O[C@@H](C)[C@@H](O)[C@@H](O)[C@@H]1O)NC(=O)[C@H](CC(C)C)NC(=O)[C@@H]1CCCN1C(=O)[C@H](CCCCN)NC(=O)C[C@@H]1O[C@@H](C)[C@@H](O)[C@@H](O)[C@@H]1O)[C@@H](C)CC)C(N)=O` (I: {Acetyl(C-α-L-Fucp)}-KPLK([Leu-Pro-Lys-Acetyl(C-α-L-Fucp)])FKIKHI-NH2 / II: {Acetyl(C-α-L-Fucp)}-KPLK([Leu-Pro-Lys-Acetyl(C-α-L-Fucp)])FKI; amide I:8-II:C), the Stability entry in data set [3] and in data set [5] was “Unstable” in each case. For the same molecule, the IC50 in [1] was 140 nM. For the same molecule, the Ratio IC50 in the data set on Pseudomonas aeruginosa [2] stood at 78.6. The same molecule showed a half-life in data set [4] of 60 h.

In the case of `C[C@H](O)[C@@H](O)[C@@H](O)[C@H](O)C=O` [L-FUCOSE], the IC50 in data set [1] is 11000 nM. Moreover, the Ratio IC50 with Pseudomonas aeruginosa [2] was 1.

For the molecule `CC(C)C[C@@H](NC(=O)[C@@H](Cc1cnc[nH]1)NC(=O)[C@@H](CCCCNC(=O)[C@@H](CC(C)C)NC(=O)[C@@H](CCCCN)NC(=O)[C@@H](Cc1ccccc1)NC(=O)[C@@H](CCCCNC(=O)[C@@H](CC(C)C)NC(=O)[C@H]1CCCN1C(=O)[C@@H](CCCCN)NC(=O)C[C@@H]1O[C@@H](C)[C@@H](O)[C@@H](O)[C@@H]1O)NC(=O)[C@@H](CC(C)C)NC(=O)[C@H]1CCCN1C(=O)[C@@H](CCCCN)NC(=O)C[C@@H]1O[C@@H](C)[C@@H](O)[C@@H](O)[C@@H]1O)NC(=O)[C@@H](CC(C)C)NC(=O)[C@@H](CCCCN)NC(=O)[C@@H](Cc1ccccc1)NC(=O)[C@@H](CCCCNC(=O)[C@@H](CC(C)C)NC(=O)[C@H]1CCCN1C(=O)[C@@H](CCCCN)NC(=O)C[C@@H]1O[C@@H](C)[C@@H](O)[C@@H](O)[C@@H]1O)NC(=O)[C@@H](CC(C)C)NC(=O)[C@H]1CCCN1C(=O)[C@@H](CCCCN)NC(=O)C[C@@H]1O[C@@H](C)[C@@H](O)[C@@H](O)[C@@H]1O)C(N)=O`, the inhibition entry with Pseudomonas aeruginosa [6], with Pseudomonas aeruginosa [8], in the data set on Pseudomonas aeruginosa [10] and with Pseudomonas aeruginosa [11] was “Active” throughout. The molecule further displayed an IC50 in data set [1] of 660 nM. The Ratio IC50 in the data set on Pseudomonas aeruginosa [7] is 4.7; in the data set with Pseudomonas aeruginosa [2], 16.7. For the same molecule, the Stability entry (in [9]; with Serum; in data set [12]) was “Stable” in each case.
